The values that follow come from ChEMBL document CHEMBL1201862, “PubChem BioAssay data set” (2004).

One assay has as its target SUMO-activating enzyme (Homo sapiens, UniProt Q9UBT2). Put plainly: inhibitors of in vitro SUMOylation cascade, primary screen, biochemical, HTRF, uHTS (AID 2006). The format is protein-complex assay.
Another assay has as its target T1, Streptokinase A (Streptococcus pyogenes serotype M1, UniProt P10520).
T1 sequence (P10520 whole entry): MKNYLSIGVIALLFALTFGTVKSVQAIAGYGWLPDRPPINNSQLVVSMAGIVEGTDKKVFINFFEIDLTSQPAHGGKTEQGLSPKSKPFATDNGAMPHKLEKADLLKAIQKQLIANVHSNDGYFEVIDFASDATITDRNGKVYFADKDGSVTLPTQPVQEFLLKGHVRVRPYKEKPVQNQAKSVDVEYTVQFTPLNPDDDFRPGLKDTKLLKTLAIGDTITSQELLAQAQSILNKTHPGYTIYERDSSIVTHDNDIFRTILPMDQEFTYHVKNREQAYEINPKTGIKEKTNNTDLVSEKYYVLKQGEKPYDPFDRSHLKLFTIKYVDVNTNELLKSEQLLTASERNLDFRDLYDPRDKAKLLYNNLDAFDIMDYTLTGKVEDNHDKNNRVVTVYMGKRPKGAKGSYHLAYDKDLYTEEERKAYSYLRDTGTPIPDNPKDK
Kind of assay: S. pyogenes streptokinase expression inhibitors, potency, dose response, plasminogen activation absorbance, OD405 (AID 1914).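 Note: secreted streptokinase activity via plasminogen activation per viability signal from cell pellet.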 The format is functional, Streptococcus pyogenes M1 GAS.

The test system of the next assay is Streptococcus. Put plainly: Group A Streptococcus viability loss, dose response, counter-screen for streptokinase expression inhibitor project, luminescence, BacTiterGlo (AID 1915).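 Note: potency for reduction of bacterial viability or growth.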 The format is functional, organism-based.
For the next assay, the target named is Large T antigen (Simian virus 40, UniProt P03070). It is filed as functional, Betapolyomavirus macacae.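 Note: Confirmatory-stage PubChem screen for compounds that inhibit SV40 T antigen.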
Assay [1] concerns the target T2, Dual specificity protein phosphatase 6 (Rattus norvegicus, UniProt Q64346).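 Note: confirmatory in vitro dose-response testing of MKP-3 inhibition; recombinant His-tagged MKP-3 made in E. coli BL21 with OMFP substrate.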
T2 sequence (Q64346 whole entry): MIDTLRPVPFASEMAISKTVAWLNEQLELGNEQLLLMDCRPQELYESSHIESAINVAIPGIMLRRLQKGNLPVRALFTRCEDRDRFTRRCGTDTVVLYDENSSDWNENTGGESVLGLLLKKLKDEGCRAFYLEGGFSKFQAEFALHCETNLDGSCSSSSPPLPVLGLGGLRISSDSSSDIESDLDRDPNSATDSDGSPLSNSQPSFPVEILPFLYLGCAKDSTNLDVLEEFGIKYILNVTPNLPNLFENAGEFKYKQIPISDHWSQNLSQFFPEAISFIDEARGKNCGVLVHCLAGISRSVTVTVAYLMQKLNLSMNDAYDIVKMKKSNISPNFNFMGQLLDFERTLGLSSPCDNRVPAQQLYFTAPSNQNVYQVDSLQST
The format is functional.

For assay [2], the target named is Glutathione-S-transferase (Schistosoma japonicum, UniProt Q26513). Put plainly: biotin-GST/anti-GST TR-FRET signal inhibitors, dose response, artefact control for Vif-APOBEC3G degradation inhibitor project, biochemical (AID 1117362). The format is functional.
Sequence of Glutathione-S-transferase (Q26513 whole entry): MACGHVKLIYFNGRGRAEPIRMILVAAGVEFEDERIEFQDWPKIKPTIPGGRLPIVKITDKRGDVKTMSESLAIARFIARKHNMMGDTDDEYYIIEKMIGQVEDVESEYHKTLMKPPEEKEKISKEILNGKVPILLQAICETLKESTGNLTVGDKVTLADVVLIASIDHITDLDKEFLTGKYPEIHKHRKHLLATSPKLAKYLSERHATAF
Assay [3] has as its target T3, Sentrin-specific protease 8 (Homo sapiens, UniProt Q96LD8).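 Note: kinetic enzyme assay of SENP8 cleaving a Nedd8 protein substrate, dose-response confirmation of screening hits.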
T3 sequence (Q96LD8 whole entry): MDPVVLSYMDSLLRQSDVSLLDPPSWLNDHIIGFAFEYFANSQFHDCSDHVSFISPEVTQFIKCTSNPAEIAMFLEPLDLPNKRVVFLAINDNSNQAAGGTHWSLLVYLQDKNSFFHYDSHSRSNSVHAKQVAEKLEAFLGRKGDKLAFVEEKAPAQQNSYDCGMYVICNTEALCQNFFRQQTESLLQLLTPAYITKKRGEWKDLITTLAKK
It is filed as functional.

For assay [4], the target named is Matrix metalloproteinase-14 (Homo sapiens, UniProt P50281). Put plainly: Dose Response confirmation of uHTS hits for a small molecule inhibitors of MT1-MMP activation in a fluorescence assay set 2. The format is functional.
In assay [5] the target is Serine/threonine-protein kinase D3 (Homo sapiens, UniProt O94806). The format is functional.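 Note: determined within a kinase panel screen, with PRKCN as the panel member.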
For assay [6], the target named is Death-associated protein kinase 3 (Homo sapiens, UniProt O43293). The format is functional.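 Note: measured as one member of a kinome-wide profiling panel.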
Sequence of Death-associated protein kinase 3 (O43293 whole entry): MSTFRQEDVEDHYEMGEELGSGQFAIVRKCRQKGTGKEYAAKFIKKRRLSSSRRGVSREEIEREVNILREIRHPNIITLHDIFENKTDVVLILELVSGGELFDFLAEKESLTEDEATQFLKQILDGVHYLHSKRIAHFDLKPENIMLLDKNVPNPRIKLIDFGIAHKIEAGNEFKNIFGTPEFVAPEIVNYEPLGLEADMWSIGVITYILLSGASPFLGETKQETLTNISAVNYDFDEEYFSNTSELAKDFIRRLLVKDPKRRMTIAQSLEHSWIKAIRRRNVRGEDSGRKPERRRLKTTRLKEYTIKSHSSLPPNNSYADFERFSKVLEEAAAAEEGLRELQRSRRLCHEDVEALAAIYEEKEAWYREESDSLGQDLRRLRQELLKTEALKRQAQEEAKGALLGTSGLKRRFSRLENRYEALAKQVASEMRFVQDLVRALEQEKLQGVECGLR
The next assay addresses SRSF protein kinase 1 (Homo sapiens, UniProt Q96SB4). The format is functional.
In assay [7] the target is Proto-oncogene tyrosine-protein kinase ROS (Homo sapiens, UniProt P08922). It is filed as functional.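 Note: ROS1 tested as one member of a kinome-wide kinase panel.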
Sequence of Proto-oncogene tyrosine-protein kinase ROS (P08922 whole entry): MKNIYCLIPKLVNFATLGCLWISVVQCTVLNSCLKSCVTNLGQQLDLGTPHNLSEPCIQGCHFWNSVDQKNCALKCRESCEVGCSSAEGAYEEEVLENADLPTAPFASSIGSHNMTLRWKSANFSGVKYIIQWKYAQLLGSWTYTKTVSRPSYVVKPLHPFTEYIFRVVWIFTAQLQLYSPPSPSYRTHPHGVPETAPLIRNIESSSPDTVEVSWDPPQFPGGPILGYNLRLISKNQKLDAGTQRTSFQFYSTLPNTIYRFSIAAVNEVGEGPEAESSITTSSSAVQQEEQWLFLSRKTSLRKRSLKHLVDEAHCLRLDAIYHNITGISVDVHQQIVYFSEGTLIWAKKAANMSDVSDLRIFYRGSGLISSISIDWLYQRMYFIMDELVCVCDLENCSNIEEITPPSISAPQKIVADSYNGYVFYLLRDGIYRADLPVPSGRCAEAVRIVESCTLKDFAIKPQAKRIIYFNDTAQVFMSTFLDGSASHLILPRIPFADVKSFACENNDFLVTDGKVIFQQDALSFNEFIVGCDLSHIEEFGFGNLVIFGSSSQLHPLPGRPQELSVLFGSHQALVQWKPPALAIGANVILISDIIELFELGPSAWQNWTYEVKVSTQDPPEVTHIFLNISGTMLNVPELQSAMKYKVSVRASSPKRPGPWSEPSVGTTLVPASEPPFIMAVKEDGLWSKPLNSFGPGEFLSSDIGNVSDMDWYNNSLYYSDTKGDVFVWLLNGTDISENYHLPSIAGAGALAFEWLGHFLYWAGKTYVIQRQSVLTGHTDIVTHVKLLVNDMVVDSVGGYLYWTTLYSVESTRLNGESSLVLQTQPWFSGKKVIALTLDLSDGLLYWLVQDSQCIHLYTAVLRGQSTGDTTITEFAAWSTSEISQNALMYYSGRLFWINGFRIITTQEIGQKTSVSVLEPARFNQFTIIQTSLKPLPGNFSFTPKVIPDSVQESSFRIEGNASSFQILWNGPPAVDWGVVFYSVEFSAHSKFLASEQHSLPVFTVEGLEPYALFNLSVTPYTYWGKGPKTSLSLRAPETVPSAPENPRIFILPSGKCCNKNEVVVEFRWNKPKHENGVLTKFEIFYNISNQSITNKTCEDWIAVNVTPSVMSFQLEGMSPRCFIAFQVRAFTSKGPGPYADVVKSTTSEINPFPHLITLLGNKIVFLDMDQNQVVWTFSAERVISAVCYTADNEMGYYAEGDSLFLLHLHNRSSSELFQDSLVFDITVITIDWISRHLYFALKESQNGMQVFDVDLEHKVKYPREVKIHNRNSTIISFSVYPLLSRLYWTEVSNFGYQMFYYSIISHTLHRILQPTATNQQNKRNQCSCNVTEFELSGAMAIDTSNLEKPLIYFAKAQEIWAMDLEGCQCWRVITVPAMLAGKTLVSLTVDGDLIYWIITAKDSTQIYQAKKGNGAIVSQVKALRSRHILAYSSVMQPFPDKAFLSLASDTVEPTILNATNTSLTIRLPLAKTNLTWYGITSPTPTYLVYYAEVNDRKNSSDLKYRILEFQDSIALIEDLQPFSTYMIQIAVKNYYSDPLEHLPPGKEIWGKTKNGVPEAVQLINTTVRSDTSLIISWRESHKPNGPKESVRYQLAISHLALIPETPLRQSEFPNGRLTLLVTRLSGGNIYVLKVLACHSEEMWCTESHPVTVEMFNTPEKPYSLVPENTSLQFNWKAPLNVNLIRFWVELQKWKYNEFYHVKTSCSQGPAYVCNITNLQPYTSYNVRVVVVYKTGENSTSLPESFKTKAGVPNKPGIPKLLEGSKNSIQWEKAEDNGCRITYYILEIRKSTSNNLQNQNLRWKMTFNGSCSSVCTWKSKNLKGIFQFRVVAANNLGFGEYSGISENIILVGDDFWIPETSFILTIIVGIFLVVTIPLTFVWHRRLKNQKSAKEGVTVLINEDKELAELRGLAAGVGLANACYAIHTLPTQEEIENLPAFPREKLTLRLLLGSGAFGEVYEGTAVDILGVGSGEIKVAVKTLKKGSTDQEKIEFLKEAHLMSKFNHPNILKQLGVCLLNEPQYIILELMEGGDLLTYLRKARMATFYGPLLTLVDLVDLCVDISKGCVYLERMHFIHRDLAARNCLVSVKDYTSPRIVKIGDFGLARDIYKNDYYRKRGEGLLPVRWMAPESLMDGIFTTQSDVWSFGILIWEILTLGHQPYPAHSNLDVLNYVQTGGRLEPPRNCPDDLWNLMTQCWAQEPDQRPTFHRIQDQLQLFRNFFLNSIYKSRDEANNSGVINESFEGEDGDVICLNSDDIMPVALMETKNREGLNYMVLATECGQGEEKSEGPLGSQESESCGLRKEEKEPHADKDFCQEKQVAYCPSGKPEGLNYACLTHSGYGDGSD
The target in assay [8] is Tyrosine-protein kinase Srms (Homo sapiens, UniProt Q9H3Y6). The format is functional.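 Note: SRMS measured as one member of a kinome-wide kinase profiling panel.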
Sequence of Tyrosine-protein kinase Srms (Q9H3Y6 whole entry): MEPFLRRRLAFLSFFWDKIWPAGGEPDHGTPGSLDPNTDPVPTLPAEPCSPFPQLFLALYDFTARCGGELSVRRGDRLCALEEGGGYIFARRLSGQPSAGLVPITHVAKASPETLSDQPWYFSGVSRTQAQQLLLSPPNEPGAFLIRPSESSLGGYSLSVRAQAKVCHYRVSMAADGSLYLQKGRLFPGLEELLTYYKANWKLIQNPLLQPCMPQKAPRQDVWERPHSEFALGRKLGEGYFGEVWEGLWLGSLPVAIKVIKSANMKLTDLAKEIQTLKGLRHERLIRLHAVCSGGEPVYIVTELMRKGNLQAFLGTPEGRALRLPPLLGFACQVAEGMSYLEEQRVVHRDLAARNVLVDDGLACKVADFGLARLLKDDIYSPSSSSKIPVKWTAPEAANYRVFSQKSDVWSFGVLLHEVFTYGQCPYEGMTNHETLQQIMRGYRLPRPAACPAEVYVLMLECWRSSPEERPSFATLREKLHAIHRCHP
Assay [9] concerns the target Dual specificity tyrosine-phosphorylation-regulated kinase 3 (Homo sapiens, UniProt O43781). The format is functional.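 Note: measured as one member of a broad kinase panel.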
Assay [10] deals with Hepatocyte growth factor receptor (Homo sapiens, UniProt P08581). It is filed as functional.
The target of assay [11] is Tyrosine-protein kinase Fyn (Homo sapiens, UniProt P06241). The format is functional.
The target in assay [12] is STE20-like serine/threonine-protein kinase (Homo sapiens, UniProt Q9H2G2). The format is functional.
In assay [13] the target is Serine/threonine-protein kinase PLK1 (Homo sapiens, UniProt P53350). It is filed as functional.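 Note: PLK1 measured as one member of a kinome-wide profiling panel.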
Sequence of Serine/threonine-protein kinase PLK1 (P53350 whole entry): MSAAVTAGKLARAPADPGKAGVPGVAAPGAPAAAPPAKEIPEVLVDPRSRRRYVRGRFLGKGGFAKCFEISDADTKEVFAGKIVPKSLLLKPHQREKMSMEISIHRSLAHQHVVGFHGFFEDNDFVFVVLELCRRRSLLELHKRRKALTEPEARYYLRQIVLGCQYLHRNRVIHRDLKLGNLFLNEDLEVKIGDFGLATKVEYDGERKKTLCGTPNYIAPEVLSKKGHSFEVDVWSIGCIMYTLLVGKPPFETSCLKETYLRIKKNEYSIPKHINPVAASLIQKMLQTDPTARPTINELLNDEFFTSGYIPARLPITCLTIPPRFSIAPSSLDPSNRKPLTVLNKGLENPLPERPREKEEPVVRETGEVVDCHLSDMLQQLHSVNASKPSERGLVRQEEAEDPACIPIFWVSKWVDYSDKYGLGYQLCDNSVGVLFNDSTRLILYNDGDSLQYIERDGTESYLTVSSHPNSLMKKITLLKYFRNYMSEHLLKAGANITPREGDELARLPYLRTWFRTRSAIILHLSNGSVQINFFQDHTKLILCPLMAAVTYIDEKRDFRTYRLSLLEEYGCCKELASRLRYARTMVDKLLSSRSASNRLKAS

Activity calls are given as the source filed them. Where only a bound is given, the exact number is not on record here.

Sequence of Dual specificity tyrosine-phosphorylation-regulated kinase 3 (O43781 whole entry): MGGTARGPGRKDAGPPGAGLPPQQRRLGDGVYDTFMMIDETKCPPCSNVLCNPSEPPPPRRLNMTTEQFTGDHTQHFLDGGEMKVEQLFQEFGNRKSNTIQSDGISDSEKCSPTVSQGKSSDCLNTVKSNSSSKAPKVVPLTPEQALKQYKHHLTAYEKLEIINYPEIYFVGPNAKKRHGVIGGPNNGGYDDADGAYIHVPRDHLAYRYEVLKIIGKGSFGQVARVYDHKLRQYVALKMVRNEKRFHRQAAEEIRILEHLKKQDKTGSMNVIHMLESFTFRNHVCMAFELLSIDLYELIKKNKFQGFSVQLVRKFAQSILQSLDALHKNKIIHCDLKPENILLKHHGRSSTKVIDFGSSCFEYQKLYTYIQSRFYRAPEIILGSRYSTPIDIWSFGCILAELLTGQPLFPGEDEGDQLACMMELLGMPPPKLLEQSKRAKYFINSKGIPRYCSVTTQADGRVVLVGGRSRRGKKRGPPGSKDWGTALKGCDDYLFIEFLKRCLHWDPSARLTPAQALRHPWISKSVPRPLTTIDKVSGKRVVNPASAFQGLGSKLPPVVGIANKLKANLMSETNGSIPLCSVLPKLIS

Consider `CC(=O)NC1C(=O)N(CCN2CCOCC2)c2ccc(F)cc21` (stereo not drawn), for which the IC50 on SUMO-activating enzyme was 12.3 µM (active).

As for `O=C1C=C(N2CCCCC2)c2ccccc2C1=O`, the half-maximal effective concentration (EC50) on Streptokinase A was 17.8 µM (active); in the assay with Streptococcus, > 50 µM (not active).

Consider `O=C(O)C1Nc2c(O)cc(Cl)c([N+](=O)[O-])c2C2C=CCC12` (stereo not drawn), for which the figures for the IC50 (on Large T antigen; in assay [1]; in [2]) were 9.86 µM (active), 35.4 µM (active) and > 100 µM (active), respectively.

In the case of `O=C(CCc1ccccc1)NNc1cc(N2CCCCC2)nc(N2CCCCC2)n1`, the IC50 in [3] is 1.01 µM (active).

Turning to `Oc1ccc(N=Nc2c(O)ccc3ccccc23)cc1`, in [4], the IC50 was 22.8 µM (inactive).

On to `Cc1n[nH]c2ccc(-c3cncc(OCC(N)Cc4cccc(Cl)c4)c3)cc12` (stereo not drawn), for which the Ki in assay [5] was 0.00398 µM (active); in [6], 0.0794 µM (active); at SRSF protein kinase 1 it was > 5.01 µM (inactive); in assay [7], 0.631 µM (active); in assay [8] it was > 1.58 µM (inactive); in assay [9] it was 0.00501 µM (active). Moreover, the Ki in [10] is > 3.16 µM (inactive); in [11] it was > 0.794 µM (inactive); in [12], 1 µM (active); in assay [13], > 7.94 µM (inactive).
